The text below walks through data of ChEMBL document CHEMBL5131495, “Discovery of unique thiazolidinone-conjugated coumarins as novel broad spectrum antibacterial agents” (Eur J Med Chem, 2022).

Molecules are shown by their SMILES. In brackets after ≈: the same amount, converted by molar mass. Activity calls are given as the source filed them. The rule behind the calls is not given here.

Data set [1] deals with Acinetobacter baumannii. Put plainly: Antibacterial activity against Acinetobacter baumannii assessed as reduction in GSH activity by Ellman's method. Type of data set: functional, organism-based. Particulars: DDE = dose-dependent effect.
For data set [2], the system named is Staphylococcus aureus. Put plainly: Antibacterial activity against Staphylococcus aureus assessed as inhibition of bacterial growth. Type of data set: functional.
Data set [3] relates to Calf thymus DNA. The data set is described as follows: Binding affinity to calf thymus DNA assessed as reduction in fluorescence intensity of acridine orange-DNA complex formation by measuring […] by competitive binding assay. Type of data set: nucleic-acid assay. Particulars: Bos taurus; DDE = dose-dependent effect.
The subject of data set [4] is Staphylococcus aureus. Put plainly: Antibacterial activity against methicillin resistant Staphylococcus aureus N315 assessed as inhibition of bacterial growth. Type of data set: functional.
Data set [5] relates to Enterococcus faecalis. The data set is described as follows: Antibacterial activity against Enterococcus faecalis assessed as inhibition of bacterial growth. Type of data set: functional.
In data set [6] the test system is Staphylococcus aureus. Put plainly: Antibacterial activity against Staphylococcus aureus ATCC 25923 assessed as inhibition of bacterial growth. Type of data set: functional.
Data set [7] relates to Staphylococcus aureus. Put plainly: Antibacterial activity against Staphylococcus aureus ATCC 29213 assessed as inhibition of bacterial growth. Type of data set: functional.
The subject of data set [8] is Klebsiella pneumoniae. Put plainly: Antibacterial activity against Klebsiella pneumoniae assessed as inhibition of bacterial growth. Type of data set: functional.
Data set [9] deals with Escherichia coli. Put plainly: Antibacterial activity against Escherichia coli assessed as inhibition of bacterial growth. Type of data set: functional.
In data set [10] the test system is Escherichia coli. Put plainly: Antibacterial activity against Escherichia coli ATCC 25922 assessed as inhibition of bacterial growth. Type of data set: functional.
The test system of data set [11] is Pseudomonas aeruginosa. The data set is described as follows: Antibacterial activity against Pseudomonas aeruginosa assessed as inhibition of bacterial growth. Type of data set: functional.
Data set [12] deals with Pseudomonas aeruginosa. The data set is described as follows: Antibacterial activity against Pseudomonas aeruginosa ATCC 27853 assessed as inhibition of bacterial growth. Type of data set: functional.
Data set [13] has as its system Acinetobacter baumannii. Put plainly: Antibacterial activity against Acinetobacter baumannii assessed as inhibition of bacterial growth. Type of data set: functional.
Data set [14] is described as follows: Cytotoxicity against human endothelial cells assessed as cell viability at 10 ug/ml by CCK8 method relative to control. Particulars: at 10 µg/mL, read-out: Activity. Type of data set: toxicity, cell-based.
A short description of data set [15]: Cytotoxicity against human liver cancer cells assessed as cell viability at 10 ug/ml by CCK8 method relative to control. Type of data set: functional. As to conditions: read-out: Activity.
A short description of data set [16]: Hemolytic activity in human RBC assessed as hemolysis rate at 64 times MIC relative to control. Type of data set: toxicity, cell-based, Erythrocyte. Particulars: red blood cells (erythrocytes), read-out: Activity.
In data set [17] the test system is Acinetobacter baumannii. The data set is described as follows: Anti- biofilm activity against Acinetobacter baumannii assessed as decrease in biofilm viability at 2 ug/ml by resazurin dye based assay relative to control. Type of data set: functional. As to conditions: dose 2 µg/ml.
Data set [18] relates to Cell membrane. The data set is described as follows: Induction of cell membrane depolarization in Acinetobacter baumannii assessed as increase in fluorescence intensity at MIC by DiSC35 dye-based fluorescence assay. Type of data set: subcellular. Particulars: time <= 60.0 min, TDE = time-dependent effect.
Data set [19] relates to Cell membrane. The data set is described as follows: Induction of outer membrane permeabilization in Acinetobacter baumannii assessed as increase in fluorescence intensity at MIC by NPN-dye based fluorescence assay. Type of data set: subcellular. Particulars: time <= 120.0 min.
Data set [20] relates to Cell membrane. Put plainly: Induction of inner membrane permeabilization in Acinetobacter baumannii assessed as increase in fluorescence intensity by propidium iodide staining based fluorescence analysis. Type of data set: subcellular. Particulars: DDE = dose-dependent effect.
Data set [21] has as its system Cell membrane. The data set is described as follows: Induction of inner membrane permeabilization in Acinetobacter baumannii assessed as increase in red fluorescence intensity by fluorescence microscopic analysis.
For data set [22], the system named is Cell membrane. Put plainly: Induction of cell membrane damage in Acinetobacter baumannii assessed as increase in protein leakage. Type of data set: subcellular.
Data set [23] concerns Cell membrane. Put plainly: Induction of cell membrane damage in Acinetobacter baumannii assessed as increase in nucleic acid leakage by measuring fold increase in absorbance at 8 times MIC by spectrophotometry. Type of data set: subcellular.
Data set [24] deals with Cell membrane. Put plainly: Induction of cell membrane destruction in Acinetobacter baumannii assessed as reduction in metabolic activity. As to conditions: DDE = dose-dependent effect. Type of data set: subcellular.
The test system of data set [25] is Acinetobacter baumannii. Put plainly: Induction of ROS production in Acinetobacter baumannii by DCFH-DA staining based fluorescence analysis. As to conditions: DDE = dose-dependent effect. Type of data set: functional.
Data set [26] concerns Acinetobacter baumannii. The data set is described as follows: Induction of ROS production in Acinetobacter baumannii assessed as fold change at 16 times MIC by DCFH-DA staining based fluorescence analysis. Type of data set: functional.
In data set [27] the test system is Acinetobacter baumannii. The data set is described as follows: Antibacterial activity against Acinetobacter baumannii assessed fold increase in malondialdehyde production measured at upto 16 times MIC. Type of data set: functional.
The test system of data set [28] is Calf thymus DNA. Put plainly: Binding affinity to calf thymus DNA assessed as hypochromic shift by UV-vis spectrophotometric analysis. Type of data set: nucleic-acid assay. As to conditions: Bos taurus.

As for `Cc1cc(=O)oc2cc(/N=C3/S/C(=C\c4c[nH]c5ccccc45)C(=O)N3CCO)ccc12`, the Activity entry in data set [1] is “Dde”; in [3] it was “Dde”; in data set [17], 45%; in data set [18] it was “Tde”; in data set [20], “Dde”; in [24] it was “Dde”. Also, the Activity result in [25] was “Dde”. Also, the minimum inhibitory concentration (MIC) turned out to be 2 µg/mL (≈ 4.49 µM) in [2]; 0.25 µg/mL (≈ 0.561 µM) in [4]; 0.25 µg/mL (≈ 0.561 µM) in data set [5]; 0.25 µg/mL (≈ 0.561 µM) in [6]; 0.25 µg/mL (≈ 0.561 µM) in data set [7]; 0.5 µg/mL (≈ 1.12 µM) in [8]. Besides, the MIC in data set [9] came to 0.25 µg/mL (≈ 0.561 µM); in [10] it was 1 µg/mL (≈ 2.24 µM); in data set [11], 256 µg/mL (≈ 575 µM); in [12], 32 µg/mL (≈ 71.8 µM); in data set [13] it was 0.25 µg/mL (≈ 0.561 µM). In addition, in [14], the viability at 10 ug/ml was determined as 75%. In addition, in data set [15], the viability at 10 µg/mL was 47%. Further, the hemolysis at 64 times MIC in data set [16] was below 5%. The outcome in data set [19], in data set [21], in [22] and in [28] was Active. Also, the figures for the fold change (FC) in [23], in [26] and in [27] were 3.8, 5.3 and 3, respectively.
As for `Cc1cc(=O)oc2cc(/N=C3/S/C(=C\c4ccc(O)c(Br)c4)C(=O)N3CCO)ccc12`, the MIC in data set [2] was 16 µg/mL (≈ 31.9 µM); in [4], 128 µg/mL (≈ 255 µM); in [5] it was 64 µg/mL (≈ 128 µM); in [6], 64 µg/mL (≈ 128 µM); in data set [7], 128 µg/mL (≈ 255 µM); in [8], 64 µg/mL (≈ 128 µM). In addition, the MIC in [9] worked out at 256 µg/mL (≈ 511 µM); in [10] it was 32 µg/mL (≈ 63.8 µM); in [11], 32 µg/mL (≈ 63.8 µM); in data set [12], 32 µg/mL (≈ 63.8 µM); in data set [13], 64 µg/mL (≈ 128 µM).
Consider `Cc1cc(=O)oc2cc(/N=C3/S/C(=C\c4ccco4)C(=O)N3CCO)ccc12`, for which the MIC was 128 µg/mL (≈ 323 µM) in data set [2]; 8 µg/mL (≈ 20.2 µM) in data set [4]; 16 µg/mL (≈ 40.4 µM) in [5]; 256 µg/mL (≈ 646 µM) in data set [6]; 32 µg/mL (≈ 80.7 µM) in data set [7]; 128 µg/mL (≈ 323 µM) in data set [8]. Also, the MIC in data set [9] was 128 µg/mL (≈ 323 µM); in data set [10] it was 4 µg/mL (≈ 10.1 µM); in data set [11], 64 µg/mL (≈ 161 µM); in data set [12] it was 32 µg/mL (≈ 80.7 µM); in data set [13], 1 µg/mL (≈ 2.52 µM).
For the compound `CCn1cc(C(=O)O)c(=O)c2cc(F)c(N3CCNCC3)cc21` [NORFLOXACIN], the MIC in data set [2] came out at 2 µg/mL (≈ 6.26 µM); in data set [4] it was 4 µg/mL (≈ 12.5 µM); in data set [5] it was 4 µg/mL (≈ 12.5 µM); in [6] it was 4 µg/mL (≈ 12.5 µM); in [7], 2 µg/mL (≈ 6.26 µM); in data set [8], 4 µg/mL (≈ 12.5 µM). The MIC in data set [9] turned out to be 2 µg/mL (≈ 6.26 µM); in data set [10], 4 µg/mL (≈ 12.5 µM); in data set [11], 1 µg/mL (≈ 3.13 µM); in [12], 4 µg/mL (≈ 12.5 µM); in [13] it was 4 µg/mL (≈ 12.5 µM).
`Cc1cc(=O)oc2cc(/N=C3/S/C(=C\c4ccc(C(F)(F)F)cc4)C(=O)N3CCO)ccc12`: the MIC came out at 128 µg/mL (≈ 270 µM) in [2]; 256 µg/mL (≈ 540 µM) in [4]; 256 µg/mL (≈ 540 µM) in data set [5]; 64 µg/mL (≈ 135 µM) in data set [6]; 256 µg/mL (≈ 540 µM) in data set [7]; 128 µg/mL (≈ 270 µM) in data set [8]. Further, the MIC worked out at 128 µg/mL (≈ 270 µM) in data set [9]; 256 µg/mL (≈ 540 µM) in [10]; 32 µg/mL (≈ 67.4 µM) in data set [11]; 256 µg/mL (≈ 540 µM) in [12]; 32 µg/mL (≈ 67.4 µM) in data set [13].
As to `Cc1cc(=O)oc2cc(/N=C3/S/C(=C\C4CCCCC4)C(=O)N3CCO)ccc12`, the minimal inhibitory concentration (MIC) in [2] was found to be 256 µg/mL (≈ 621 µM); in [4], 256 µg/mL (≈ 621 µM); in [5] it was 256 µg/mL (≈ 621 µM); in [6], 256 µg/mL (≈ 621 µM); in data set [7], 16 µg/mL (≈ 38.8 µM); in data set [8], 256 µg/mL (≈ 621 µM). Further, the MIC in [9] came out at 256 µg/mL (≈ 621 µM); in data set [10], 256 µg/mL (≈ 621 µM); in data set [11], 256 µg/mL (≈ 621 µM); in data set [12] it was 16 µg/mL (≈ 38.8 µM); in [13] it was 64 µg/mL (≈ 155 µM).
Turning to `Cc1cc(=O)oc2cc(/N=C3/S/C(=C\c4cccc(Cl)c4)C(=O)N3CCO)ccc12`, the MIC came out at 32 µg/mL (≈ 72.6 µM) in data set [2]; 8 µg/mL (≈ 18.1 µM) in [4]; 32 µg/mL (≈ 72.6 µM) in data set [5]; 8 µg/mL (≈ 18.1 µM) in data set [6]; 32 µg/mL (≈ 72.6 µM) in data set [7]; 32 µg/mL (≈ 72.6 µM) in data set [8]. Moreover, the MIC worked out at 32 µg/mL (≈ 72.6 µM) in [9]; 64 µg/mL (≈ 145 µM) in data set [10]; 2 µg/mL (≈ 4.54 µM) in data set [11]; 1 µg/mL (≈ 2.27 µM) in data set [12]; 4 µg/mL (≈ 9.07 µM) in data set [13].
Consider `CCn1cc(/C=C2\S/C(=N/c3ccc4c(C)cc(=O)oc4c3)N(CCO)C2=O)c2ccccc21`, for which the MIC was found to be 128 µg/mL (≈ 270 µM) in data set [2]; 128 µg/mL (≈ 270 µM) in data set [4]; 128 µg/mL (≈ 270 µM) in data set [5]; 64 µg/mL (≈ 135 µM) in data set [6]; 128 µg/mL (≈ 270 µM) in data set [7]; 64 µg/mL (≈ 135 µM) in data set [8]. The MIC in data set [9] is 64 µg/mL (≈ 135 µM); in data set [10] it was 128 µg/mL (≈ 270 µM); in data set [11], 64 µg/mL (≈ 135 µM); in data set [12], 32 µg/mL (≈ 67.6 µM); in data set [13], 64 µg/mL (≈ 135 µM).
On to `Cc1cc(=O)oc2cc(/N=C3\NC(=O)CS3)ccc12`, for which the minimal inhibitory concentration (MIC) in [2] is 32 µg/mL (≈ 117 µM); in [4], 256 µg/mL (≈ 933 µM); in data set [5] it was 256 µg/mL (≈ 933 µM); in [6], 64 µg/mL (≈ 233 µM); in data set [7], 256 µg/mL (≈ 933 µM); in data set [8] it was 4 µg/mL (≈ 14.6 µM). For the same compound, the MIC in data set [9] was 16 µg/mL (≈ 58.3 µM); in data set [10], 128 µg/mL (≈ 467 µM); in [11], 64 µg/mL (≈ 233 µM); in [12], 128 µg/mL (≈ 467 µM); in [13] it was 256 µg/mL (≈ 933 µM).
